In patent US4320052A, “Derivatives of A-30912A nucleus” (Eli Lilly and Company, priority 1980, dated 1982):
Several values for one entry are separate records, joined by “and”; a condition that tells them apart may be missing. Equal entries are not always repeated. Where two headings read alike, the source gives them in different places. Numbered stars: 1 amine (or outer) side, 2 acyl side, 3 side chain; on linkers, the order of the positions; unused ones are H or OH. Bridge positions count the residues as written; N and C are the ends. Square brackets hold non-standard residues; d marks the D form. Peptide text beside a SMILES is read from it. * marks the point of attachment. Orn(4R-OH,5R-OH) = O=C([C@H](C[C@@H](O)[C@@H](O)N[*:3])N[*:1])[*:2]; hTyr(3S-OH,4S-OH) = N[C@H](C(=O)O)[C@H](O)[C@@H](O)c1ccc(O)cc1; Pro(3S-OH,4S-Me) = C[C@H]1CN[C@H](C(=O)O)[C@H]1O; Heptadecanoyl = CCCCCCCCCCCCCCCCC(=O)*; X1 = CC/C=C\C/C=C\C/C=C\CCCCCCCC(=O)*; X4 = CCCCCCCC/C=C\CCCCCCCCCC(=O)*; Hyp = O=C(O)[C@@H]1C[C@@H](O)CN1; X3 = CCCCCCCC/C=C/CCCCCCCC(=O)*; X6 = CCCCCC/C=C\CCCCCCCCCC(=O)*

Assays:
Candida albicans A-26 [1] = experiment: Agar plate disc diffusion test (MIC); assay type: cell-based; conditions: 0.01M sodium borate pH 7.5; 20 μg/disc top, twofold dilutions; 24 hours, 30° C.
Method: (§1) Tables II and III give the results of the testing in vitro of the compounds of Examples 1-16 by agar-plate disc-diffusion methods. In Table II activity is measured by the size (diameter in mm.) of the observed zone of inhibition of the microorganism produced by the test compound. In Table III, activity is measured by the minimal inhibitory concentration (MIC) of the substance (μg/dic) required to inhibit growth of the test organism. Table IV gives the results of the testing in vitro of the n-tridecanoyl derivative of A30912A nucleus (Formula III, R is n-C12 H25) against five strains of Candida albicans by the agar dilution method. In […] activity is measured by the minimal inhibitory concentration (MIC) of the substance (μg/ml) required to inhibit the test organism.
(§2) *Compounds were suspended in 0.01M sodium borate solution, pH 7.5. The
(§3) compounds were tested at 20 μg/disc at top level and at twofold
(§4) dilutions until end points were reached. Incubation: 24 hours; 30°

[2] = test system: Trichophyton mentagrophytes #6; experiment: Agar plate disc diffusion test (MIC); assay type: cell-based; conditions: 0.01M sodium borate pH 7.5; 20 μg/disc top, twofold dilutions; 24 hours, 30° C.
Method: as §1, §2, §3, §4

Candida albicans A-26 [3] = experiment: Agar plate disc diffusion test (zone of inhibition); assay type: cell-based; conditions: suspension in methanol 1 mg/ml, 7mm disc; 24-48 hours at 25-37° C.
Method: as §1
(§5) ^(a) Compounds were tested as suspension in methanol at a
(§6) concentration of 1 mg/ml. by dipping a 7mm disc into the suspension and
(§7) placing it on the agar surface. Incubation: 24-48 hours at 25-37°

Neurospora crassa 846 = experiment: as above; assay type: cell-based; conditions: Neurospora crassa, 846, suspension in methanol 1 mg/ml, 7mm disc
Method: as §1, §5, §6, §7

[4] = Blood levels after oral administration in mice (bioassay vs. Aspergillus montevidensis A35137); conditions: mouse, in vivo; for concentration at 4 h: po, 416 mg/kg
From the text: determined by bioassay vs. Aspergillus montevidensis A35137.

[5] = test system: Trichophyton mentagraphytes A-23; experiment: Agar plate disc diffusion test (zone of inhibition); assay type: cell-based, Trichophyton mentagrophytes; conditions: A23, suspension in methanol 1 mg/ml, 7mm disc
Method: as §1, §5, §6, §7

Candida albicans A-26 [6] = experiment: In vivo activity against Candida albicans A-26 infection in mice; set-up: species or system mice infected with Candida albicans A-26; conditions: Candida albicans, A26, sc, 24 h, mice, subcutaneous, schedule A (40, 20, 15, and 10 mg/kg), 0, 4, 24 hours; for ED50: increase in survival time, read-out: ED50; for minimal effective dose: read-out: Lowest Active Dose
Method: The results of in vivo tests to evaluate the effectiveness of the compound of Examples 1-16 against an infection caused by Candida albicans A-26 in mice are given in Table V, where activity is measured by the ED50 value (the dose in mg/kg. required to cure 50% of the test animals). Where an ED50 value was not obtained, activity is indicated by the lowest dose at which a significant anti-fungal effect is observed. In this test, groups of male albino mice (specific pathogen free), weighing 18 to 20 grams, are infected intravenously with Candida albicans A-26. The animals are X-irradiated 24 hours prior to infection at about 50 roentgens per minute for 8 minutes (400 total dose) to reduce immune responses to the infecting organism. At 0, 4, and 24 hours post infection each group of mice is given graded doses subcutaneously of the test compound as a suspension in 33% polyethylene glycol-water. The day of death for each animal is recorded.
mg/kg. Dosages given 0, 4, and 24 hours post injection as suspension of
test compound in 30% PEG--H2 O. Number of mice receiving test
compounds at each dosage level; 6 mice per group. Number of mice in
control (untreated) group: 10 mice per group.
**As measured by increase in survival time of treated animals versus
control, calculated by method of Reed v Mueuch, American J. Hygiene, 27,

[7] = test system: Saccharomyces pastoranius X-52; experiment: Agar plate disc diffusion test (zone of inhibition); assay type: cell-based, Saccharomyces pastorianus; conditions: X52, suspension in methanol 1 mg/ml, 7mm disc, 24-48 hours at 25-37° C., read-out: Size of zone of inhibition, Saccharomyces pastoranius X-52
Method: as §1, §5, §6, §7

[8] = 24-48 hours at 25-37° C., read-out: Size of zone of inhibition, Neurospora crassa 846
[9] = *distinct measurable zone of inhibition with regrowth of organism around disc, read-out: Size of zone of inhibition, Trichophyton mentagraphytes A-23 (*)

Structure (SMILES)	MIC, Candida albicans A-26 (Candida albicans A-26 [1])	MIC, Trichophyton mentagrophytes #6 [2] [μg/disc]	Size of zone of inhibition, Candida albicans A-26 (Candida albicans A-26 [3]) [mm]	zone of inhibition at 1000 µg/mL (Neurospora crassa 846; [8]) [mm]	concentration at 4 h [4] [µg/mL]	zone of inhibition at 1000 µg/mL [5, 9] [mm]	ED50 (Candida albicans A-26 [6]) [mg/kg]	minimal effective dose (Candida albicans A-26 [6]) [mg/kg]	zone of inhibition at 1000 µg/mL [7] [mm]	zone of inhibition at 1000 µg/mL (Neurospora crassa 846; *distinct measurable zone of inhibition with regrowth of organism around disc, read-out: Size of zone of inhibition, Neurospora crassa 846 (*)) [mm]	Blood Levels After Oral Administration In Mice ([4]; 240 min) [ng/mL]	zone of inhibition at 1000 µg/mL ([5]; 24-48 hours at 25-37° C., read-out: Size of zone of inhibition, Trichophyton mentagraphytes A-23) [mm]
CCCCCCCCCCCCCCCCC(=O)N[C@H]1C[C@@H](O)[C@@H](O)NC(=O)[C@@H]2[C@@H](O)[C@@H](C)CN2C(=O)[C@H]([C@@H](C)O)NC(=O)[C@H]([C@H](O)[C@@H](O)c2ccc(O)cc2)NC(=O)[C@@H]2C[C@@H](O)CN2C(=O)[C@H]([C@@H](C)O)NC1=O [Example 5] (Heptadecanoyl-[Orn(4R-OH,5R-OH)]T[Hyp][hTyr(3S-OH,4S-OH)]T[Pro(3S-OH,4S-Me)]; lactam 1-C)	0.625 μg/disc	0.039	18	21	97	40	9	≥ 5	30	–	–	–
CCCCCCCC/C=C\CCCCCCCCCC(=O)N[C@H]1C[C@@H](O)[C@@H](O)NC(=O)[C@@H]2[C@@H](O)[C@@H](C)CN2C(=O)[C@H]([C@@H](C)O)NC(=O)[C@H]([C@H](O)[C@@H](O)c2ccc(O)cc2)NC(=O)[C@@H]2C[C@@H](O)CN2C(=O)[C@H]([C@@H](C)O)NC1=O [Example 14] (X4-[Orn(4R-OH,5R-OH)]T[Hyp][hTyr(3S-OH,4S-OH)]T[Pro(3S-OH,4S-Me)]; lactam 1-C)	1.25 μg/disc and 2.5 μg/disc	–	22	18	–	23	–	10	18	–	–	–
CC/C=C\C/C=C\C/C=C\CCCCCCCC(=O)N[C@H]1C[C@@H](O)[C@@H](O)NC(=O)[C@@H]2[C@@H](O)[C@@H](C)CN2C(=O)[C@H]([C@@H](C)O)NC(=O)[C@H]([C@H](O)[C@@H](O)c2ccc(O)cc2)NC(=O)[C@@H]2C[C@@H](O)CN2C(=O)[C@H]([C@@H](C)O)NC1=O [Example 11] (X1-[Orn(4R-OH,5R-OH)]T[Hyp][hTyr(3S-OH,4S-OH)]T[Pro(3S-OH,4S-Me)]; lactam 1-C)	1.25 μg/disc	0.039	30	–	–	–	> 40	> 40	16	33	0	36
CCCCCCCC/C=C/CCCCCCCC(=O)N[C@H]1C[C@@H](O)[C@@H](O)NC(=O)[C@@H]2[C@@H](O)[C@@H](C)CN2C(=O)[C@H]([C@@H](C)O)NC(=O)[C@H]([C@H](O)[C@@H](O)c2ccc(O)cc2)NC(=O)[C@@H]2C[C@@H](O)CN2C(=O)[C@H]([C@@H](C)O)NC1=O [Example 8] (X3-[Orn(4R-OH,5R-OH)]T[Hyp][hTyr(3S-OH,4S-OH)]T[Pro(3S-OH,4S-Me)]; lactam 1-C)	0.156 μg/disc	< 0.039	21	32	65	31	11	10	18	–	–	–
CCCCCC/C=C\CCCCCCCCCC(=O)N[C@H]1C[C@@H](O)[C@@H](O)NC(=O)[C@@H]2[C@@H](O)[C@@H](C)CN2C(=O)[C@H]([C@@H](C)O)NC(=O)[C@H]([C@H](O)[C@@H](O)c2ccc(O)cc2)NC(=O)[C@@H]2C[C@@H](O)CN2C(=O)[C@H]([C@@H](C)O)NC1=O [Example 9] (X6-[Orn(4R-OH,5R-OH)]T[Hyp][hTyr(3S-OH,4S-OH)]T[Pro(3S-OH,4S-Me)]; lactam 1-C)	0.312 μg/disc	< 0.039	–	–	4.2	–	> 40	40	–	–	–	–
